The values below come from US12049483B2, “Selective and noncovalent inhibitors of oncogenic RAS mutants” (New York University, priority 2020, dated 2024).

For orientation: koff means a measure of how fast the partners let go of each other. Higher therefore signals fast dissociation.

The target in one experiment is T1, KRAS(G12V) (Homo sapiens, UniProt P01116, G12V).
T1 construct: KRAS4B residues 1-174 containing G12C, G12V, G12D, G13D, Q61L, WT; His6 (N, cleaved yes); Avi-tag (N, cleaved yes); made in house; host or cells: E. coli BL21(DE3)
As to the kind of experiment: BLI binding to KRAS(G12V). As to conditions: nucleotide state GTPγS. The text has this: Protein expression and purification. All proteins used for monobody development and binding assays, including RAS constructs (KRAS4B residues 1-174 containing G12C, G12V, G12D, G13D, Q61L, WT, NRAS(WT), and HRAS(WT)), Monobodies, and RAF-1 RBD (residues 51-131) were produced with an N-terminal tag containing His6, Avi-tag for biotinylation and a TEV protease recognition site using the pHBT vector. The proteins were produced in E. coli BL21(DE3). To produce biotinylated proteins, E. coli BL21(DE3) with the pBirA plasmid was used as the host and grown in the presence of 50 μM of biotin. Expressed proteins were purified using Ni-Sepharose columns (GE Healthcare) via gravitational flow, followed by dialysis in Tris buffered saline (TBS, 50 mM Tris-Cl pH7.5 containing 150 mM NaCl) for non-RAS proteins. TBS containing 20 mM MgCl2 and 0.5 mM DTT was used for RAS proteins. Samples were further purified using a Superdex 75 size exclusion column on AKTA Pure systems (GE Healthcare). HRAS(WT) and HRAS(G12C) (residues 1-166) used for crystallization was produced as a fusion protein with His6 and yeast SUMO at the N terminus using an in-house vector described previously. […]
Biolayer interferometry (BLI) analysis. […] BLI signals were analyzed using Octet Data Analysis software (Molecular Devices).

Experiment [1] deals with KRAS mutant and control cell lines. As to the kind of experiment: Cell proliferation assay of dox-inducible monobody-expressing cell lines. Format: cell-based. To be noted: KRAS(G12C) (H358 and H23) and KRAS(G12V) (PATU8902 and H441) cell lines. As for the experimental part:
Cell proliferation assay. […] Cells were then cultured in the presence of 1 μg/mL doxycycline for the entire duration of experiment (7-8 days) and subcultured into a new 12 well or 24 well plate every 2 days. […] The mixed culture was sampled periodically and the ratio between monobody expressing cells (mVenus and GFP positive) and non-expressing cells was determined using flow cytometry analysis (FIG. 11).

For the next experiment, the target named is T2, HRAS(WT) (Homo sapiens, UniProt P01112).
T2 construct: made in house; host or cells: E. coli BL21(DE3) with pBirA
As to the kind of experiment: Yeast display binding titration, HRAS(WT). To be noted: GTPγS and GDP bound states. As for the experimental part: Nucleotide exchange of RAS. Purified RAS proteins used in binding experiment and crystallization were prepared by diluting stock protein (typically containing 20-250 μM RAS) 25 times with 20 mM Tris-Cl buffer pH 7.5 containing 5 mM EDTA, 0.1 mM DTT and 1 mM final concentration of a nucleotide (GDP or GTPγS). Samples were incubated at 30° C. for 30 minutes. MgCl2 was then added to the sample at a final concentration of 20 mM and the solution was further incubated on ice for at least 5 minutes prior to use.
Monobody development. General procedures for the development of monobodies against purified protein targets have been described previously. After four rounds of phage display library selection using biotinylated KRAS(G12C) at concentrations of 100 nM, 100 nM, 50 nM and 50 nM, the genes encoding monobodies from the enriched phage pool were transferred to a yeast display vector, which was used to construct yeast-display libraries. The yeast display libraries were sorted using a Bio-Rad S3e fluorescence-activated cell sorter or a […] II cell sorter (BD Biosciences). […] Single clones were then screened for selective binding to RAS mutants. The expression of monobodies on the surface of yeast cells were detected using mouse anti-VS and anti-mouse IgG-FITC conjugate. Target binding was detected with neutravidin Dylight650. Yeast cells were analyzed using an iQue flow cytometer (Sartorius). […]

“Also recorded” adds a separate entry of the source.

T2 sequence (P01112 whole entry): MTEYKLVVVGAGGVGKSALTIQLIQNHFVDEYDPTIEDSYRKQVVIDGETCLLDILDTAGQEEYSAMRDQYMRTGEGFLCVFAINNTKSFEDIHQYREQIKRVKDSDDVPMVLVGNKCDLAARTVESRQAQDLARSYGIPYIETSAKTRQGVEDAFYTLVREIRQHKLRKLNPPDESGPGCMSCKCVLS

The sequence “VSSVPTKLEVVAATPTSLLISWDAPAVTVFFYVITYGETGHGVGAFQAFKVPGSKSTATISGLKPGVDYTITVYARGYSKQGPYKPSPISINYRT [12VC1]” gave a koff at KRAS(G12V) of 0.007 s⁻¹. Moreover, in experiment [1], the proliferation entry is reported as “potently inhibited”. Further, the binding entry on HRAS(WT) is “no binding; also recorded: did not detectably bind”.
